{"source": "paper PMC6891678", "about": "“A Novel Prodrug Approach for Central Nervous System-Selective Estrogen Therapy” (Molecules, 2019)", "origin": "cited, not measured here", "key": {"[1]": {"conditions": "E2-CDS-treated animals"}, "uterus [2]": {"tested_on": "uterus", "conditions": "after E2-CDS"}, "amyloid-β peptide (Aβ)": {"tested_on": "amyloid-β peptide (Aβ)", "conditions": "OVX and intact female APPswe/PS1dE9 DTG mice"}, "[3]": {"tested_on": "MCP-1−/− transgenic mouse model", "parameters": "method as in earlier work", "conditions": "topical eye drops; for increase of contrast sensitivity compared to the vehicle control: ipsilateral/treated eye"}, "retina homogenate": {"tested_on": "retina homogenate", "conditions": "100 μM, 37 °C, homogenate 0.2% w/v, pH 7.4; mean ± SD"}, "[4]": {"tested_on": "middle-aged OVX Fisher-344 rats", "conditions": "continuous 7-week s.c. administration, 4 µg daily dose"}, "liver homogenate": {"tested_on": "liver homogenate", "conditions": "100 μM, 37 °C, homogenate 0.2% w/v, pH 7.4; mean ± SD"}, "[5]": {"tested_on": "ER transcription (ERE-Luc reporter)"}, "brain homogenate": {"tested_on": "brain homogenate", "conditions": "100 μM, 37 °C, homogenate 0.2% w/v, pH 7.4; mean ± SD"}, "[6]": {"tested_on": "transient middle cerebral artery occlusion (tMCAO) ischemic stroke model", "conditions": "for ED50 (dose equivalent to 50% of the maximum effect): neuroprotection, tMCAO followed by reperfusion"}, "[7]": {"experiment": "not given", "remark": "listed apart in the source"}, "OVX CD1 mice": {"tested_on": "OVX CD1 mice", "conditions": "increasing s.c. doses, 5 days once daily"}, "uterus [8]": {"tested_on": "uterus", "conditions": "increasing s.c. doses, 5 days once daily"}, "[9]": {"conditions": "300 µg/kg s.c., 5 days once daily, SEM, n = 4"}}, "data": [{"smiles": "CN1C=CCC(C(=O)O[C@H]2CC[C@H]3[C@@H]4CCc5cc(O)ccc5[C@H]4CC[C@]23C)=C1", "note": "[E2-CDS]", "values": [{"measurement": "E2 content of uterus", "setting": "[1]", "result": "1 to 3", "unit": "ng/g"}, {"measurement": "wet uterine weight relative to control (uterotrophic effect)", "setting": "uterus [2]", "result": "significant increase in wet uterine weight"}]}, {"smiles": "C[C@]12CC[C@H]3[C@@H](CCC4=CC(=O)C=C[C@@]43O)[C@@H]1CC[C@@H]2O", "note": "[DHED, 10β,17β-dihydroxyestra-1,4-dien-3-one]", "values": [{"measurement": "amyloid-β peptide (Aβ) levels in the brain", "setting": "amyloid-β peptide (Aβ)", "result": "decreased amyloid-β peptide (Aβ) levels in the brain"}, {"measurement": "increase of contrast sensitivity compared to the vehicle control", "setting": "[3]", "result": "approximately 3 fold"}, {"measurement": "preservation of contrast sensitivity compared to the wild-type (WT) control", "setting": "[3]", "result": "approximately 75%"}, {"measurement": "Rate of H2O2 production, Retina", "setting": "retina homogenate", "result": "163 ± 9", "unit": "nmol·h^−1·mg protein^−1"}, {"measurement": "working memory errors compared to control animals", "setting": "[4]", "result": "significantly decreased working memory errors"}, {"measurement": "Rate of H2O2 production, Liver", "setting": "liver homogenate", "result": "34 ± 18", "unit": "nmol·h^−1·mg protein^−1"}, {"measurement": "ER activation within the brain (bioluminescence in brain slices)", "setting": "[5]; i.c.v. injection, 75 µg/kg", "result": "profound ER activation"}, {"measurement": "bioluminescence in the periphery (ERE-Luc reporter activation)", "setting": "[5]; s.c., E2 20 μg/kg, DHED 200 μg/kg", "result": "did not generate bioluminescence in the periphery"}, {"measurement": "oral bioavailability", "result": "excellent oral bioavailability"}, {"measurement": "Rate of H2O2 production, Brain", "setting": "brain homogenate", "result": "125 ± 19", "unit": "nmol·h^−1·mg protein^−1"}, {"measurement": "ED50 (dose equivalent to 50% of the maximum effect)", "setting": "[6]", "result": 15, "unit": "µg/kg"}]}, {"smiles": "C[C@]12CC[C@@H]3C4=C(CC[C@H]3[C@@H]1CCC2=O)C(=O)C(=O)C=C4", "note": "[3,4-E1-quinone, estra-1,5(10)-dien-3,4,17-trione, reference compound]", "values": [{"measurement": "Rate of H2O2 production, Retina", "setting": "retina homogenate", "result": "580 ± 50", "unit": "nmol·h^−1·mg protein^−1"}, {"measurement": "Rate of H2O2 production, Liver", "setting": "liver homogenate", "result": "687 ± 40", "unit": "nmol·h^−1·mg protein^−1"}, {"measurement": "Rate of H2O2 production, Brain", "setting": "brain homogenate", "result": "1050 ± 8", "unit": "nmol·h^−1·mg protein^−1"}]}, {"smiles": "C[C@]12CC[C@@H]3c4ccc(O)cc4CC[C@H]3[C@@H]1CC[C@@H]2O", "note": "[E2, 17β-estradiol, reference compound]", "values": [{"measurement": "increase of contrast sensitivity compared to the vehicle control", "setting": "[3]", "result": "~2", "unit": "fold"}, {"measurement": "preservation of contrast sensitivity compared to the wild-type (WT) control", "setting": "[3]", "result": "~50", "unit": "%"}, {"measurement": "time of maximum bioluminescence effect after drug treatment", "setting": "[5]; E2 20 μg/kg s.c.", "result": "about 3 h"}, {"measurement": "oral bioavailability", "result": "lacks appreciable oral bioavailability"}, {"measurement": "E2 concentration in the retina", "setting": "[7]; 3-week daily E2 eye drops", "result": "~ 22 ng/g"}, {"measurement": "circulating estrogen levels", "setting": "[7]; chronic E2 eye drop treatment", "result": "> 400", "unit": "pg/mL"}, {"measurement": "ED50 (dose equivalent to 50% of the maximum effect)", "setting": "[6]", "result": "~ 200 µg/kg"}]}, {"smiles": "C[C@]12CC[C@@H]3c4ccc(O)cc4CC[C@H]3[C@@H]1CC[C@H]2O", "note": "[αE2, 17α-estradiol, reference compound]", "values": [{"measurement": "immobility time in PST", "setting": "OVX CD1 mice", "result": "dose-dependent reduction in immobility times"}]}, {"smiles": "C[C@]12CC[C@H]3[C@@H](CCC4=CC(=O)C=C[C@@]43O)[C@@H]1CCC2=O", "note": "[HEDD, 10β-hydroxyestra-1,4-dien-3,17-dione]", "values": [{"measurement": "neuroprotection in stroke model", "setting": "[6]; without peripheral hormonal liability", "result": "significant neuroprotection"}]}, {"smiles": "C[C@]12CC[C@H]3[C@@H](CCC4=CC(=O)C=C[C@@]43O)[C@@H]1CC[C@H]2O", "note": "[αDHED, 10β,17α-dihydroxyestra-1,4-dien-3-one]", "values": [{"measurement": "uterotrophic effect (wet uterus weight)", "setting": "uterus [8]", "result": "devoid of this detrimental common side effect"}, {"measurement": "Cortex αE2", "setting": "[9]", "result": "8.9 ± 1.7", "unit": "ng/g"}, {"measurement": "Serum αE2", "setting": "[9]", "result": "<0.01", "unit": "ng/mL"}, {"measurement": "Cortex E2", "setting": "[9]; endogenous E2", "result": "0.28 ± 0.09", "unit": "ng/g"}, {"measurement": "Serum E2", "setting": "[9]; endogenous E2", "result": "<0.01", "unit": "ng/mL"}, {"measurement": "Uterus E2", "setting": "[9]; endogenous E2", "result": "0.37 ± 0.10", "unit": "ng/g"}, {"measurement": "immobility time in PST", "setting": "OVX CD1 mice", "result": "dose-dependent reduction in immobility times"}]}]}
